Source: article PMC6503114, “Application of Antimicrobial Peptides of the Innate Immune System in Combination With Conventional Antibiotics—A Novel Way to Combat Antibiotic Resistance?” (Frontiers in Cellular and Infection Microbiology, 2019)
Where two headings read alike, the source gives them in different places. Marks after values point to notes of the source that are not given here.

How the values were obtained:
S. aureus 1399/17 [1] = experiment: Checkerboard titration (FICI); assay type: cell-based, Staphylococcus aureus
Protocol: (§1) The combined antimicrobial action of AMPs and other antimicrobial compounds was assessed using checkerboard titration approach under the conditions similar to that of the microdilution assay. According to checkerboard titration template, one component (A) of the combination was diluted along the rows of the plate, while the other (B) was diluted down the columns, thereby creating the variety of mixtures with different concentrations of tested compounds. 2.5 μl of corresponding solutions of the components A and B were added into each well of the plate. Into the first column and the last row the same amount of 10 mM sodium phosphate buffer, pH 7.4, containing 0.1% of BSA was introduced instead of the second component. Thus, all wells contained 5 μl of antimicrobial compounds solutions (solo or in combination). The same volume of bacterial suspension, prepared as described for microdilution assay, was added into each well. The results were recorded after the overnight incubation, visually indicating the presence or absence of the microbial growth in the corresponding wells. Based on the obtained data the isobolograms of combined action were plotted and/or Fractional Inhibitory Concentration Indices (FICI) were calculated. […] Depending on the minimal value of the FICI the combined effect of the combination was classified as antagonism (FICI > 2), independent action (1 < FICI ≤ 2), additivity (0.5 < FICI ≤ 1) or synergy (FICI ≤ 0.5), as is recommended in the literature and due to some drawbacks of the serial dilution method (Hsieh et al., [1993]; Orhan et al., [2005]; Fehri et al., [2007]). FICIs were assessed in 3–6 independent experiments and median values were used to define the nature of interaction.

E. coli ESBL 521/17 [2] = experiment: Checkerboard titration (FICI); assay type: cell-based, Escherichia coli
Protocol: as §1

S. aureus 1399/17 [3] = experiment: microbe, parasite or virus in culture; assay type: cell-based; conditions: Staphylococcus aureus; S. aureus 1399/17, drug-resistant clinical isolate; read-out: MIC
Protocol: (§2) Prior to the “checkerboard” synergy test the minimal inhibitory concentrations (MIC) of individual substances were determined using broth microdilution assay. Testing was performed in 60-well polystyrene Terasaki microplates with V-shaped bottom generally according to the guidelines of the European Committee for Antimicrobial Susceptibility Testing with subtle modifications designed for AMP testing (Tossi et al., [1997]; Wiegand et al., [2008]). Cultivation of bacteria was carried out in 2.1% Müller-Hinton broth at 37°C with shaking. Two-fold serial dilutions of peptides, antibiotics and other antimicrobials were made with 10 mM sodium phosphate buffer, pH 7.4, containing 0.1% of BSA. The plates were preliminary incubated with 0.1% BSA for 1 h at 37°C to reduce a non-specific binding of peptides to the plates. After that BSA was removed, and serial dilutions were added into the plate wells in triplicates followed by the same volume of the suspension of bacterial cells in logarithmic phase of growth in concentration of 1 × 10^6 CFU/ml. After the 18 h overnight incubation at 37°C, the MIC value for each compound was determined as its lowest concentration completely inhibiting the visible growth of bacteria. The final results were calculated as median values based on 3–6 independent experiments.

P. aeruginosa MDR 522/17 [4] = experiment: microbe, parasite or virus in culture; assay type: cell-based; conditions: Pseudomonas aeruginosa, MDR522/17; P. aeruginosa MDR 522/17, drug-resistant clinical isolate
Protocol: as §2

E. coli ESBL 521/17 [5] = experiment: microbe, parasite or virus in culture; assay type: cell-based; conditions: Escherichia coli, ESBL521/17; E. coli ESBL 521/17, drug-resistant clinical isolate; square brackets = twice the maximal tested concentration
Protocol: as §2

[6] = tested on: K. pneumoniae ESBL 344/17; experiment: microbe, parasite or virus in culture; assay type: cell-based; conditions: Klebsiella pneumoniae, ESBL344/17; K. pneumoniae ESBL 344/17, drug-resistant clinical isolate
Protocol: as §2

A. baumannii 7226/16 [7] = experiment: microbe, parasite or virus in culture; assay type: cell-based; conditions: Acinetobacter baumannii; A. baumannii 7226/16, drug-resistant clinical isolate
Protocol: as §2

[8] = tested on: K. pneumoniae ESBL 344/17; experiment: Checkerboard titration (FICI); assay type: cell-based, Klebsiella pneumoniae
Protocol: as §1

A. baumannii 7226/16 [9] = experiment: Checkerboard titration (FICI); assay type: cell-based, Acinetobacter baumannii
Protocol: as §1

P. aeruginosa MDR 522/17 [10] = experiment: Checkerboard titration (FICI); assay type: cell-based, Pseudomonas aeruginosa
Protocol: as §1

M. luteus CIP A270 = assay type: cell-based, Micrococcus luteus
Protocol: as §1, with “According” for “The combined antimicrobial action of AMPs and other antimicrobial compounds was assessed using checkerboard titration approach under the conditions similar to that of the microdilution assay. According”

E. coli ML-35p = assay type: cell-based, Escherichia coli
Protocol: as §1, with “According” for “The combined antimicrobial action of AMPs and other antimicrobial compounds was assessed using checkerboard titration approach under the conditions similar to that of the microdilution assay. According”

MRSA ATCC 33591 = assay type: cell-based, Staphylococcus aureus
Protocol: as §1, with “According” for “The combined antimicrobial action of AMPs and other antimicrobial compounds was assessed using checkerboard titration approach under the conditions similar to that of the microdilution assay. According”

[11] = tested on: A. baumannii (clin. isol.); assay type: cell-based, Acinetobacter baumannii; conditions: AMP in combination with GEN (gentamicin)
Protocol: According to checkerboard titration template, one component (A) of the combination was diluted along the rows of the plate, while the other (B) was diluted down the columns, thereby creating the variety of mixtures with different concentrations of tested compounds. 2.5 μl of corresponding solutions of the components A and B were added into each well of the plate. Into the first column and the last row the same amount of 10 mM sodium phosphate buffer, pH 7.4, containing 0.1% of BSA was introduced instead of the second component. Thus, all wells contained 5 μl of antimicrobial compounds solutions (solo or in combination). The same volume of bacterial suspension, prepared as described for microdilution assay, was added into each well. The results were recorded after the overnight incubation, visually indicating the presence or absence of the microbial growth in the corresponding wells. Based on the obtained data the isobolograms of combined action were plotted and/or Fractional Inhibitory Concentration Indices (FICI) were calculated. […] FICIs were assessed in 3–6 independent experiments and median values were used to define the nature of interaction.

bacteria = experiment: Checkerboard titration, synergy cases with conventional antibiotics (all tested bacteria); assay type: cell-based; conditions: in vitro, human AMPs
Protocol: as §1, with “According” for “The combined antimicrobial action of AMPs and other antimicrobial compounds was assessed using checkerboard titration approach under the conditions similar to that of the microdilution assay. According”

[12] = antibiotic in combination with ChBac3.4
[13] = antibiotic in combination with PG-1
[14] = AMP in combination with GEN (gentamicin)
[15] = AMP in combination with OX (oxacillin)
[16] = AMP in combination with PMB (polymyxin B)
[17] = AMP in combination with RIF (rifampicin)

Row | Molecule | Minimal FICI (S. aureus 1399/17 [1]; [12]) | Minimal FICI (S. aureus 1399/17 [1]; [13]) | Minimal FICI (E. coli ESBL 521/17 [2]; [12]) | Minimal FICI (E. coli ESBL 521/17 [2]; [13]) | MIC (S. aureus 1399/17 [3]) [µM] | MIC (P. aeruginosa MDR 522/17 [4]) [µM] | MIC (E. coli ESBL 521/17 [5]) [µM] | MIC [6] [µM] | MIC (A. baumannii 7226/16 [7]) [µM] | Minimal FICI [8, 12] | Minimal FICI [8, 13] | Minimal FICI (A. baumannii 7226/16 [9]; [12]) | Minimal FICI (A. baumannii 7226/16 [9]; [13]) | Minimal FICI (P. aeruginosa MDR 522/17 [10]; [12]) | Minimal FICI (P. aeruginosa MDR 522/17 [10]; [13]) | further results
1 | CC1COc2c(N3CCN(C)CC3)c(F)cc3c(=O)c(C(=O)O)cn1c23 (centres unmarked) [Ofloxacin] | 0.125^* | 0.56 | 0.75 | 0.75 | > 50 | > 50 | 50 | 0.25 | 25 | 0.75 | 0.5 | 0.5^* | 0.62 | 0.75 | 1.12 | 
2 | Cc1onc(-c2ccccc2)c1C(=O)N[C@@H]1C(=O)N2[C@@H]1SC(C)(C)[C@@H]2C(=O)O [Oxacillin] | 0.25^* | 1.12 | 1.12 | 1.12 | > 50 | > 50 | > 50 | > 50 | > 50 | 1.12 | 1.12 | 1.12 | 0.75 | 1.12 | 1.12 | 
3 | Lysozyme: egg white lysozyme, antimicrobial protein, from BioChemica |  |  |  |  |  |  |  |  |  |  |  |  |  |  |  | Minimal FICI (M. luteus CIP A270; [14]): 0.62; Minimal FICI (M. luteus CIP A270; AMP in combination with OFL (ofloxacin)): 0.62; Minimal FICI (M. luteus CIP A270; [15]): 0.75; Minimal FICI (M. luteus CIP A270; [16]): 0.62; Minimal FICI (M. luteus CIP A270; [17]): 0.75; Minimal FICI (E. coli ML-35p; [14]): 0.53; Minimal FICI (E. coli ML-35p; [16]): 0.25; Minimal FICI (E. coli ML-35p; [17]): 0.62; Minimal FICI (MRSA ATCC 33591; [14]): 0.53; Minimal FICI (MRSA ATCC 33591; [15]): 0.53; Minimal FICI (MRSA ATCC 33591; [16]): 0.56; Minimal FICI (MRSA ATCC 33591; [17]): 0.62; Minimal FICI [11]: 0.75
4 | CC[C@H](C)[C@H](NC(=O)[C@H](CCCCN)NC(=O)[C@H](CCC(=O)O)NC(=O)[C@H](CCCCN)NC(=O)[C@H](CO)NC(=O)[C@H](CCCCN)NC(=O)[C@H](CCCNC(=N)N)NC(=O)[C@H](Cc1ccccc1)NC(=O)[C@H](Cc1ccccc1)NC(=O)[C@H](CC(=O)O)NC(=O)CNC(=O)[C@H](CC(C)C)NC(=O)[C@@H](N)CC(C)C)C(=O)NCC(=O)N[C@@H](CCCCN)C(=O)N[C@@H](CCC(=O)O)C(=O)N[C@@H](Cc1ccccc1)C(=O)N[C@@H](CCCCN)C(=O)N[C@@H](CCCNC(=N)N)C(=O)N[C@H](C(=O)N[C@H](C(=O)N[C@@H](CCC(N)=O)C(=O)N[C@@H](CCCNC(=N)N)C(=O)N[C@H](C(=O)N[C@@H](CCCCN)C(=O)N[C@@H](CC(=O)O)C(=O)N[C@@H](Cc1ccccc1)C(=O)N[C@@H](CC(C)C)C(=O)N[C@@H](CCCNC(=N)N)C(=O)N[C@@H](CC(N)=O)C(=O)N[C@@H](CC(C)C)C(=O)N[C@H](C(=O)N1CCC[C@H]1C(=O)N[C@@H](CCCNC(=N)N)C(=O)N[C@H](C(=O)N[C@@H](CCC(=O)O)C(=O)N[C@@H](CO)C(=O)O)[C@@H](C)O)C(C)C)[C@@H](C)CC)C(C)C)[C@@H](C)CC [LL-37] |  |  |  |  |  |  |  |  |  |  |  |  |  |  |  | AMP concentration in synergy cases with conventional antibiotics (bacteria): around 150 nM
